Measured values taken from paper PMC11277489, “Novel Piperazine Derivatives of Vindoline as Anticancer Agents” (International Journal of Molecular Sciences, 2024).
Like-named read-outs stand apart in the source and are kept apart here.

Assays:
Assay type in all cases: cell-based
HOP-62 = assay: NCI60 five-dose screen, Non-small Cell Lung Cancer; settings: Homo sapiens; HOP-62, Non-small Cell Lung Cancer; five-dose screen; read-out: GI50
RXF 393 = assay: NCI60 five-dose screen, Renal Cancer; settings: Homo sapiens, RXF 393, Renal Cancer
SF-295 = assay: NCI60 five-dose screen, CNS Cancer; settings: Homo sapiens; SF-295, CNS Cancer; five-dose screen; read-out: GI50
UACC-62 = assay: NCI60 five-dose screen, Melanoma; settings: Homo sapiens; UACC-62, Melanoma; five-dose screen; read-out: GI50
SK-MEL-28 = assay: NCI60 five-dose screen, Melanoma; settings: Homo sapiens; SK-MEL-28, Melanoma; five-dose screen; read-out: GI50
PC-3 = assay: NCI60 five-dose screen, Prostate Cancer; settings: Homo sapiens; PC-3, Prostate Cancer; five-dose screen; read-out: GI50
[1] = system: 60 human tumor cell lines (NCI60); assay: NCI60 five-dose screen, whole panel and sub-panel means; settings: read-out: GI50 Mean
HT29 = assay: NCI60 five-dose screen, Colon Cancer; settings: Homo sapiens, HT-29; HT29, Colon Cancer; five-dose screen; read-out: GI50
MOLT-4 = assay: NCI60 five-dose screen, Leukemia; settings: Homo sapiens; MOLT-4, Leukemia; five-dose screen; read-out: GI50
K-562 = assay: NCI60 five-dose screen, Leukemia; settings: Homo sapiens, K562; K-562, Leukemia; five-dose screen; read-out: GI50
NCI-H322M = assay: NCI60 five-dose screen, Non-small Cell Lung Cancer; settings: Homo sapiens, Non-small Cell Lung Cancer, five-dose screen, read-out: GI50
MDA-MB-468 = assay: NCI60 five-dose screen, Breast Cancer; settings: Homo sapiens; MDA-MB-468, Breast Cancer; five-dose screen; read-out: GI50
UACC-257 = assay: NCI60 five-dose screen, Melanoma; settings: Homo sapiens; UACC-257, Melanoma; five-dose screen; read-out: GI50
EKVX = assay: NCI60 five-dose screen, Non-small Cell Lung Cancer; settings: Homo sapiens, Non-small Cell Lung Cancer, five-dose screen, read-out: GI50
HCT-116 = assay: NCI60 five-dose screen, Colon Cancer; settings: Homo sapiens; HCT-116, Colon Cancer; five-dose screen; read-out: GI50
MDA-MB-435 = assay: NCI60 five-dose screen, Melanoma; settings: Homo sapiens; MDA-MB-435, Melanoma; five-dose screen; read-out: GI50
SR = assay: NCI60 five-dose screen, Leukemia; settings: Homo sapiens, Leukemia, five-dose screen, read-out: GI50
OVCAR-4 = assay: NCI60 five-dose screen, Ovarian Cancer; settings: Homo sapiens; OVCAR-4, Ovarian Cancer; five-dose screen; read-out: GI50
U251 = assay: NCI60 five-dose screen, CNS Cancer; settings: Homo sapiens, U-251; U251, CNS Cancer; five-dose screen; read-out: GI50
HS 578T = assay: NCI60 five-dose screen, Breast Cancer; settings: Homo sapiens; HS 578T, Breast Cancer; five-dose screen; read-out: GI50
BT-549 = assay: NCI60 five-dose screen, Breast Cancer; settings: Homo sapiens; BT-549, Breast Cancer; five-dose screen; read-out: GI50
SK-MEL-2 = assay: NCI60 five-dose screen, Melanoma; settings: Homo sapiens; SK-MEL-2, Melanoma; five-dose screen; read-out: GI50
LOX IMVI = assay: NCI60 five-dose screen, Melanoma; settings: Homo sapiens, Melanoma, five-dose screen, read-out: GI50
A549/ATCC = assay: NCI60 five-dose screen, Non-small Cell Lung Cancer; settings: Homo sapiens; A549/ATCC, Non-small Cell Lung Cancer; five-dose screen; read-out: GI50
SF-268 = assay: NCI60 five-dose screen, CNS Cancer; settings: Homo sapiens; SF-268, CNS Cancer; five-dose screen; read-out: GI50
OVCAR-8 = assay: NCI60 five-dose screen, Ovarian Cancer; settings: Homo sapiens; OVCAR-8, Ovarian Cancer; five-dose screen; read-out: GI50
SK-MEL-5 = assay: NCI60 five-dose screen, Melanoma; settings: Homo sapiens; SK-MEL-5, Melanoma; five-dose screen; read-out: GI50
RPMI-8226 = assay: NCI60 five-dose screen, Leukemia; settings: Homo sapiens; RPMI-8226, Leukemia; five-dose screen; read-out: GI50
HCT-15 = assay: NCI60 five-dose screen, Colon Cancer; settings: Homo sapiens; HCT-15, Colon Cancer; five-dose screen; read-out: GI50
SNB-19 = assay: NCI60 five-dose screen, CNS Cancer; settings: Homo sapiens; SNB-19, CNS Cancer; five-dose screen; read-out: GI50
UO-31 = assay: NCI60 five-dose screen, Renal Cancer; settings: Homo sapiens; UO-31, Renal Cancer; five-dose screen; read-out: GI50
M14 = assay: NCI60 five-dose screen, Melanoma; settings: Homo sapiens; M14, Melanoma; five-dose screen; read-out: GI50
SF-539 = assay: NCI60 five-dose screen, CNS Cancer; settings: Homo sapiens; SF-539, CNS Cancer; five-dose screen; read-out: GI50
MDA-MB231ATCC = assay: NCI60 five-dose screen, Breast Cancer; settings: Homo sapiens, MDA-MB-231; MDA-MB231ATCC, Breast Cancer; five-dose screen; read-out: GI50
[2] = Homo sapiens, 60 cell, mean over all 60 cell lines
[3] = Homo sapiens, mean over Breast Cancer panel
[4] = Homo sapiens, mean over CNS Cancer panel
[5] = Homo sapiens, mean over Colon Cancer panel
[6] = Homo sapiens, mean over Leukemia panel
[7] = Homo sapiens, mean over Melanoma panel
[8] = Homo sapiens, mean over Non-small Cell Lung Cancer panel
[9] = Homo sapiens, mean over Ovarian Cancer panel
[10] = Homo sapiens, mean over Prostate Cancer panel
[11] = Homo sapiens, mean over Renal Cancer panel

CCC12C=CCN3CCC4(c5cc(NC(=O)CN6CCN(c7ccc(C(F)(F)F)cc7)CC6)c(OC)cc5N(C)C4C(O)(C(=O)OC)C1OC(C)=O)C32 (stereo not shown) [Compound 17]
GI50 (HOP-62): 3.72 µM
GI50 (RXF 393): 5.37 µM
GI50 (SF-295): 3.55 µM
GI50 (UACC-62): 10.2 µM
GI50 (SK-MEL-28): 5.89 µM
GI50 (PC-3): 3.31 µM
GI50 [1, 2]: 5.53 µM
GI50 [1, 3]: 6.11 µM
GI50 [1, 4]: 4.01 µM
GI50 [1, 5]: 4.31 µM
GI50 [1, 6]: 2.75 µM
GI50 [1, 7]: 5.89 µM
GI50 [1, 8]: 7.29 µM
GI50 [1, 9]: 6.48 µM
GI50 [1, 10]: 4.88 µM
GI50 [1, 11]: 6.01 µM
GI50 (HT29): 2.09 µM
GI50 (MOLT-4): 2.09 µM
GI50 (K-562): 3.02 µM
GI50 (NCI-H322M): 15.1 µM
GI50 (MDA-MB-468): 2.4 µM
GI50 (UACC-257): 5.5 µM
GI50 (EKVX): 6.03 µM
GI50 (HCT-116): 3.72 µM
GI50 (MDA-MB-435): 1.95 µM
GI50 (SR): 2.95 µM
GI50 (OVCAR-4): 3.89 µM
GI50 (U251): 6.03 µM
GI50 (HS 578T): 14.8 µM
GI50 (BT-549): 2.34 µM
GI50 (SK-MEL-2): 4.37 µM
GI50 (LOX IMVI): 4.27 µM
GI50 (A549/ATCC): 4.07 µM
GI50 (SF-268): 3.02 µM
GI50 (OVCAR-8): 8.51 µM
GI50 (SK-MEL-5): 2.4 µM
GI50 (RPMI-8226): 3.09 µM
GI50 (HCT-15): 3.89 µM
GI50 (SNB-19): 5.37 µM
GI50 (UO-31): 5.13 µM
GI50 (M14): 3.63 µM
GI50 (SF-539): 4.68 µM
GI50 (MDA-MB231ATCC): 11.2 µM

CCC12C=CCN3CCC4(c5cc(NC(=O)CN6CCN(C(c7ccc(F)cc7)c7ccc(F)cc7)CC6)c(OC)cc5N(C)C4C(O)(C(=O)OC)C1OC(C)=O)C32 (stereo not shown) [Compound 20]
GI50 (HOP-62): 89.1 µM
GI50 (RXF 393): 2.69 µM
GI50 (SF-295): 3.47 µM
GI50 (UACC-62): 8.13 µM
GI50 (SK-MEL-28): 12.3 µM
GI50 (PC-3): 4.47 µM
GI50 [1, 2]: 6.27 µM
GI50 [1, 3]: 4.52 µM
GI50 [1, 4]: 4.4 µM
GI50 [1, 5]: 3.4 µM
GI50 [1, 6]: 2.38 µM
GI50 [1, 7]: 5.6 µM
GI50 [1, 8]: 15.7 µM
GI50 [1, 9]: 5.3 µM
GI50 [1, 10]: 5.39 µM
GI50 [1, 11]: 5.23 µM
GI50 (HT29): 2.88 µM
GI50 (MOLT-4): 2.14 µM
GI50 (K-562): 3.16 µM
GI50 (NCI-H322M): 12 µM
GI50 (MDA-MB-468): 3.02 µM
GI50 (UACC-257): 5.25 µM
GI50 (EKVX): 4.07 µM
GI50 (HCT-116): 3.09 µM
GI50 (MDA-MB-435): 3.89 µM
GI50 (SR): 2 µM
GI50 (OVCAR-4): 3.31 µM
GI50 (U251): 6.03 µM
GI50 (HS 578T): 5.89 µM
GI50 (BT-549): 2.57 µM
GI50 (SK-MEL-2): 3.02 µM
GI50 (LOX IMVI): 3.24 µM
GI50 (A549/ATCC): 4.37 µM
GI50 (SF-268): 5.13 µM
GI50 (OVCAR-8): 7.59 µM
GI50 (SK-MEL-5): 2.34 µM
GI50 (RPMI-8226): 1.91 µM
GI50 (HCT-15): 3.55 µM
GI50 (SNB-19): 5.89 µM
GI50 (UO-31): 5.25 µM
GI50 (M14): 4.07 µM
GI50 (SF-539): 4.07 µM
GI50 (MDA-MB231ATCC): 9.12 µM

CC[C@]12C=CCN3CC[C@@]4(c5ccc(OC)cc5N(C)[C@H]4[C@@](O)(C(=O)OC)[C@@H]1OC(=O)CCCN1CCN(c4ccc(C(F)(F)F)cc4)CC1)[C@@H]32 [Compound 22]
GI50 (HOP-62): 3.02 µM
GI50 (RXF 393): 1.55 µM
GI50 (SF-295): 1.95 µM
GI50 (UACC-62): 3.31 µM
GI50 (SK-MEL-28): 1.95 µM
GI50 (PC-3): 2.45 µM
GI50 [1, 2]: < 4 µM
GI50 [1, 3]: 2.51 µM
GI50 [1, 4]: 2.47 µM
GI50 [1, 5]: 2.02 µM
GI50 [1, 6]: 1.77 µM
GI50 [1, 7]: 1.98 µM
GI50 [1, 8]: 2.88 µM
GI50 [1, 9]: 3.05 µM
GI50 [1, 10]: 2.67 µM
GI50 [1, 11]: 2.59 µM
GI50 ([1]; mean over all 60 cell lines): 2.44 µM
GI50 (HT29): 1.74 µM
GI50 (MOLT-4): 1.95 µM
GI50 (K-562): 1.41 µM
GI50 (NCI-H322M): 3.72 µM
GI50 (MDA-MB-468): 1.38 µM
GI50 (UACC-257): 1.82 µM
GI50 (EKVX): 3.09 µM
GI50 (HCT-116): 1.91 µM
GI50 (MDA-MB-435): 1.7 µM
GI50 (SR): 1.7 µM
GI50 (OVCAR-4): 3.8 µM
GI50 (U251): 2.24 µM
GI50 (HS 578T): 2.82 µM
GI50 (BT-549): 3.02 µM
GI50 (SK-MEL-2): 2.19 µM
GI50 (LOX IMVI): 1.7 µM
GI50 (A549/ATCC): 2.95 µM
GI50 (SF-268): 3.63 µM
GI50 (OVCAR-8): 3.02 µM
GI50 (SK-MEL-5): 1.7 µM
GI50 (RPMI-8226): 2.04 µM
GI50 (HCT-15): 1.82 µM
GI50 (SNB-19): 3.55 µM
GI50 (UO-31): 1.86 µM
GI50 (M14): 1.86 µM
GI50 (SF-539): 1.78 µM
GI50 (MDA-MB231ATCC): 2.82 µM
